According to US20050180932A1, “Ultraviolet absorption compositions” (AJINOMOTO CO. INC, priority 2002, published 2005):
Structures can show the parent of a compound that is named as a salt. Each block holds one compound with its values, some of them ahead of it.

Columns and labels:
[1] = Solubility in water at room temperature; type: physicochemical
[2] = Wavelength at the maximum UV absorption and molar absorption coefficient (UV spectrometer, water/alcohol solution); type: physicochemical; settings: for Amide-containing guanidine derivative: Mol.Abs.Coef. (ε) / Starting UV absorbent: Mol.Abs.Coef. (ε): in M-1cm-1 (unit assumed); for Amide-containing guanidine derivative: Wavelength / Starting UV absorbent: Wavelength: UV absorption maximum
Description: The wavelength showing the maximum absorption was measured by means of a UV spectrometer in a water and/or alcohol solution of R^1COOH or its salt as mentioned in detail in the Examples.
Test 1. Wavelength at the Maximum Absorption

- Amide-containing guanidine derivative: Mol.Abs.Coef. (ε) ([2]; 40% isopropyl alcohol solution): 25740
- Amide-containing guanidine derivative: Wavelength ([2]; 40% isopropyl alcohol solution): 308 nm
SMILES: CCCCCCCCCCCCOc1ccc(/C=C/C(=O)N[C@@H](CCCNC(=N)N)C(=O)O)cc1 [Compound 6, N-paradodecyloxycinnamoylarginine]

- Starting UV absorbent: Mol.Abs.Coef. (ε) ([2]; 30% methanol solution): 18661
- Starting UV absorbent: Wavelength ([2]; 30% methanol solution): 279 nm
SMILES: O=C(O)C=Cc1ccccc1 [Starting UV absorbent of Prep.1, cinnamic acid, reference compound]

- Solubility of amide-containing guanidine derivative [1]: >7 wt %
SMILES: CCCCCCCCCCCCOc1ccc(C=CC(=O)NCCCCNC(=N)N)cc1.Cl [Compound 5, N-paradodecyloxycinnamoylamidobutylguanidine hydrochloride]

- Starting UV absorbent: Mol.Abs.Coef. (ε) ([2]; 30% methanol solution): 20845
- Starting UV absorbent: Wavelength ([2]; 30% methanol solution): 307 nm
- Solubility of starting UV absorbent [1]: <0.1 wt %
SMILES: COc1ccc(C=CC(=O)O)cc1 [Starting UV absorbent of Prep.3, p-methoxycinnamic acid, reference compound]

- Starting UV absorbent: Mol.Abs.Coef. (ε) ([2]; 40% isopropyl alcohol solution): 21246
- Starting UV absorbent: Wavelength ([2]; 40% isopropyl alcohol solution): 309 nm
- Solubility of starting UV absorbent [1]: <0.01 wt %
SMILES: CCCCCCCCCCCCOc1ccc(C=CC(=O)O)cc1 [Starting UV absorbent of Prep.4, p-dodecyloxycinnamic acid, reference compound]

Second part, the compound before the results:

SMILES: COc1ccc(C=CC(=O)N[C@@H](CCCNC(=N)N)C(=O)O)cc1 [Compound 3 (HCl salt)]
- Solubility of amide-containing guanidine derivative [1]: >15 wt %

SMILES: COc1ccc(C=CC(=O)N[C@@H](CCCNC(=N)N)C(=O)O)cc1 [Compound 3, N-paramethoxycinnamoylarginine]
- Amide-containing guanidine derivative: Mol.Abs.Coef. (ε) ([2]; 30% methanol solution): 24977
- Amide-containing guanidine derivative: Wavelength ([2]; 30% methanol solution): 307 nm

SMILES: Cl.N=C(N)NCCCCNC(=O)C=Cc1ccccc1 [Compound 2, N-cinnamoylamidobutylguanidine hydrochloride]
- Solubility of amide-containing guanidine derivative [1]: >15 wt %

SMILES: CCCCCCCCCCCCOc1ccc(C=CC(=O)NCCCCNC(=N)N)cc1.CCCCCCCCCCCCOc1ccc(C=CC(=O)NCCCCNC(=N)N)cc1.O=S(=O)(O)O [Compound 4, N-paradodecyloxycinnamoylamidobutylguanidine ½ sulfate]
- Amide-containing guanidine derivative: Mol.Abs.Coef. (ε) ([2]; 40% isopropyl alcohol solution): 24122
- Amide-containing guanidine derivative: Wavelength ([2]; 40% isopropyl alcohol solution): 307 nm

SMILES: N=C(N)NCCCCNC(=O)C=Cc1ccccc1.N=C(N)NCCCCNC(=O)C=Cc1ccccc1.O=S(=O)(O)O [Compound 1, N-cinnamoylamidobutylguanidine ½ sulfate]
- Amide-containing guanidine derivative: Mol.Abs.Coef. (ε) ([2]; 30% methanol solution): 21885
- Amide-containing guanidine derivative: Wavelength ([2]; 30% methanol solution): 280 nm
